Source: US4868321A, “Isothiocyanate intermediates” (FMC Corporation, priority 1988, dated 1989)

Tests used:
Type in all cases: in vivo
[1] = tested on: Morningglory; experiment: Preemergence Herbicidal Activity, Morningglory; settings: Ipomoea, pre-emergence
Procedure, shortened: (§1)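 Pre-/postemergence screen; compound typically dissolved in acetone/water 50/50; dose in kg/ha; read-out = % control.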

[2] = tested on: Field Bindweed; experiment: Postemergence Herbicidal Activity, Field Bindweed; settings: post-emergence
Procedure, shortened: as §1

[3] = tested on: Johnsongrass; experiment: Postemergence Herbicidal Activity, Johnsongrass; settings: Sorghum halepense, post-emergence
Procedure, shortened: (§2)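 Herbicidal response was graded as percent control. Compound rates were in kg/ha.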

[4] = tested on: Velvetleaf; experiment: Preemergence Herbicidal Activity, Velvetleaf; settings: Abutilon theophrasti, pre-emergence
Procedure, shortened: as §1

[5] = tested on: Cotton; experiment: Preemergence Herbicidal Activity, Cotton; settings: Gossypium hirsutum, pre-emergence
Procedure, shortened: as §1

[6] = tested on: Cotton; experiment: Postemergence Herbicidal Activity, Cotton; settings: Gossypium hirsutum, post-emergence
Procedure, shortened: as §1

[7] = tested on: Rice; experiment: Preemergence Herbicidal Activity, Rice; settings: Oryza sativa, pre-emergence
Procedure, shortened: (§3)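 Test compounds are dosed on a per-area basis (kg/ha); plant response is reported as % C.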

[8] = tested on: Rice; experiment: Postemergence Herbicidal Activity, Rice; settings: Oryza sativa, post-emergence
Procedure, shortened: as §3

[9] = tested on: Wheat; experiment: Preemergence Herbicidal Activity, Wheat; settings: Triticum aestivum, pre-emergence
Procedure, shortened: as §3

[10] = tested on: Soybean; experiment: Postemergence Herbicidal Activity, Soybean; settings: Glycine max, post-emergence
Procedure, shortened: as §3

[11] = tested on: Field Corn; experiment: Preemergence Herbicidal Activity, Field Corn; settings: Zea mays, pre-emergence
Procedure, shortened: as §3

[12] = tested on: Morningglory; experiment: Postemergence Herbicidal Activity, Morningglory; settings: Ipomoea, post-emergence
Procedure, shortened: as §1

[13] = tested on: Velvetleaf; experiment: Postemergence Herbicidal Activity, Velvetleaf; settings: Abutilon theophrasti, post-emergence
Procedure, shortened: as §1

[14] = tested on: Field Corn; experiment: Postemergence Herbicidal Activity, Field Corn; settings: Zea mays, post-emergence
Procedure, shortened: as §3

[15] = tested on: Green Foxtail; experiment: Preemergence Herbicidal Activity, Green Foxtail; settings: Setaria viridis, pre-emergence
Procedure, shortened: as §2

[16] = tested on: Soybean; experiment: Preemergence Herbicidal Activity, Soybean; settings: Glycine max, pre-emergence
Procedure, shortened: as §3

[17] = tested on: Johnsongrass; experiment: Preemergence Herbicidal Activity, Johnsongrass; settings: Sorghum halepense, pre-emergence
Procedure, shortened: as §2

[18] = tested on: Green Foxtail; experiment: Postemergence Herbicidal Activity, Green Foxtail; settings: Setaria viridis, post-emergence
Procedure, shortened: as §2

[19] = tested on: Barnyardgrass; experiment: Postemergence Herbicidal Activity, Barnyardgrass; settings: Echinochloa crus-galli, post-emergence
Procedure, shortened: as §2

[20] = tested on: Barnyardgrass; experiment: Preemergence Herbicidal Activity, Barnyardgrass; settings: Echinochloa crus-galli, pre-emergence
Procedure, shortened: as §2

[21] = tested on: Wheat; experiment: Postemergence Herbicidal Activity, Wheat; settings: Triticum aestivum, post-emergence
Procedure, shortened: as §3

[22] = tested on: Field Bindweed; experiment: Preemergence Herbicidal Activity, Field Bindweed; settings: pre-emergence
Procedure, shortened: as §1

Q: How did the pest or weed control at 1000 g/ha ([1]; 1.0 kg/ha) turn out when `CCCS(=O)(=O)N(c1cc(-n2nnn(CCCF)c2=O)c(F)cc1Br)S(=O)(=O)CCC` [Compound 27] was run?
A: Its pest or weed control at 1000 g/ha is 100%.

Q: And the pest or weed control at 1000 g/ha ([2]; 1.0 kg/ha)?
A: The pest or weed control at 1000 g/ha was 95%.

Q: And the pest or weed control at 1000 g/ha ([3]; 1.0 kg/ha)?
A: Its pest or weed control at 1000 g/ha is 100%.

Q: What about the pest or weed control at 1000 g/ha ([4]; 1.0 kg/ha) of the same compound?
A: Its pest or weed control at 1000 g/ha is 100%.

Q: And the plant injury at 1000 g/ha ([5]; 1.0 kg/ha)?
A: Its plant injury at 1000 g/ha is 95%.

Q: What about the plant injury at 1000 g/ha ([6]; 1.0 kg/ha) of the same compound?
A: Its plant injury at 1000 g/ha is 100%.

Q: What about the plant injury at 1000 g/ha ([7]; 1.0 kg/ha) of the same compound?
A: The plant injury at 1000 g/ha was 60%.

Q: And the plant injury at 1000 g/ha ([8]; 1.0 kg/ha)?
A: The plant injury at 1000 g/ha was 30%.

Q: What about the plant injury at 1000 g/ha ([9]; 1.0 kg/ha) of the same compound?
A: Its plant injury at 1000 g/ha is 60%.

Q: And the plant injury at 1000 g/ha ([10]; 1.0 kg/ha)?
A: Its plant injury at 1000 g/ha is 90%.

Q: And the plant injury at 1000 g/ha ([11]; 1.0 kg/ha)?
A: Its plant injury at 1000 g/ha is 95%.

Q: What about the pest or weed control at 1000 g/ha ([12]; 1.0 kg/ha) of the same compound?
A: Its pest or weed control at 1000 g/ha is 100%.

Q: And the pest or weed control at 1000 g/ha ([13]; 1.0 kg/ha)?
A: Its pest or weed control at 1000 g/ha is 100%.

Q: What about the plant injury at 1000 g/ha ([14]; 1.0 kg/ha) of the same compound?
A: Its plant injury at 1000 g/ha is 95%.

Q: And the pest or weed control at 1000 g/ha ([15]; 1.0 kg/ha)?
A: The pest or weed control at 1000 g/ha was 100%.

Q: And the plant injury at 1000 g/ha ([16]; 1.0 kg/ha)?
A: Its plant injury at 1000 g/ha is 30%.

Q: And the pest or weed control at 1000 g/ha ([17]; 1.0 kg/ha)?
A: The pest or weed control at 1000 g/ha was 95%.

Q: And the pest or weed control at 1000 g/ha ([18]; 1.0 kg/ha)?
A: The pest or weed control at 1000 g/ha was 100%.

Q: And the pest or weed control at 1000 g/ha ([19]; 1.0 kg/ha)?
A: Its pest or weed control at 1000 g/ha is 100%.

Q: What about the pest or weed control at 1000 g/ha ([20]; 1.0 kg/ha) of the same compound?
A: The pest or weed control at 1000 g/ha was 100%.

Q: And the plant injury at 1000 g/ha ([21]; 1.0 kg/ha)?
A: Its plant injury at 1000 g/ha is 80%.

Q: And the pest or weed control at 1000 g/ha ([22]; 1.0 kg/ha)?
A: The pest or weed control at 1000 g/ha was 100%.

Q: Which results are given for `CCCS(=O)(=O)Nc1cc(-n2nnn(CCCF)c2=O)c(F)cc1Cl` [Compound 28, 1-[4-Chloro-2-fluoro-5-(N--propylsulfonylamino)phenyl]-1,4-dihydro-4-(3-fluoropropyl)-5H--tetrazol-5-one]?
A: pest or weed control at 500 g/ha ([1]; 0.5 kg/ha): 100%; pest or weed control at 500 g/ha ([2]; 0.5 kg/ha): 100%; pest or weed control at 500 g/ha ([3]; 0.5 kg/ha): 95%; pest or weed control at 500 g/ha ([4]; 0.5 kg/ha): 100%; plant injury at 500 g/ha ([5]; 0.5 kg/ha): 100%; plant injury at 500 g/ha ([6]; 0.5 kg/ha): 100%; plant injury at 500 g/ha ([7]; 0.5 kg/ha): 70%; plant injury at 500 g/ha ([8]; 0.5 kg/ha): 70%; plant injury at 500 g/ha ([9]; 0.5 kg/ha): 30%; plant injury at 500 g/ha ([10]; 0.5 kg/ha): 30%; plant injury at 500 g/ha ([11]; 0.5 kg/ha): 30%; pest or weed control at 500 g/ha ([12]; 0.5 kg/ha): 100%; pest or weed control at 500 g/ha ([13]; 0.5 kg/ha): 100%; plant injury at 500 g/ha ([14]; 0.5 kg/ha): 40%; pest or weed control at 500 g/ha ([15]; 0.5 kg/ha): 90%; plant injury at 500 g/ha ([16]; 0.5 kg/ha): 0%; pest or weed control at 500 g/ha ([17]; 0.5 kg/ha): 70%; pest or weed control at 500 g/ha ([18]; 0.5 kg/ha): 100%; pest or weed control at 500 g/ha ([19]; 0.5 kg/ha): 100%; pest or weed control at 500 g/ha ([20]; 0.5 kg/ha): 95%; plant injury at 500 g/ha ([21]; 0.5 kg/ha): 60%; pest or weed control at 500 g/ha ([22]; 0.5 kg/ha): 100%

Q: `CCCS(=O)(=O)N(C)c1cc(-n2nnn(CCCF)c2=O)c(F)cc1Cl` [Compound 29, 1-[4-Chloro-2-fluoro-5-(N--methyl-N--propylsulfonylamino)phenyl]-1,4-dihydro-4-(3-fluoropropyl)-5H--tetrazol-5-one] was tested. Which pest or weed control at 250 g/ha ([1]; 0.25 kg/ha) did it give?
A: The pest or weed control at 250 g/ha was 70%.

Q: What about the pest or weed control at 250 g/ha ([2]; 0.25 kg/ha) of the same compound?
A: Its pest or weed control at 250 g/ha is 80%.

Q: And the pest or weed control at 250 g/ha ([3]; 0.25 kg/ha)?
A: The pest or weed control at 250 g/ha was 70%.

Q: What about the pest or weed control at 250 g/ha ([4]; 0.25 kg/ha) of the same compound?
A: Its pest or weed control at 250 g/ha is 100%.

Q: And the plant injury at 250 g/ha ([5]; 0.25 kg/ha)?
A: The plant injury at 250 g/ha was 60%.

Q: What about the plant injury at 250 g/ha ([6]; 0.25 kg/ha) of the same compound?
A: The plant injury at 250 g/ha was 70%.

Q: What about the plant injury at 250 g/ha ([7]; 0.25 kg/ha) of the same compound?
A: The plant injury at 250 g/ha was 60%.

Q: What about the plant injury at 250 g/ha ([8]; 0.25 kg/ha) of the same compound?
A: The plant injury at 250 g/ha was 60%.

Q: What about the plant injury at 250 g/ha ([9]; 0.25 kg/ha) of the same compound?
A: Its plant injury at 250 g/ha is 80%.

Q: And the plant injury at 250 g/ha ([10]; 0.25 kg/ha)?
A: Its plant injury at 250 g/ha is 70%.

Q: And the plant injury at 250 g/ha ([11]; 0.25 kg/ha)?
A: Its plant injury at 250 g/ha is 95%.

Q: What about the pest or weed control at 250 g/ha ([12]; 0.25 kg/ha) of the same compound?
A: Its pest or weed control at 250 g/ha is 70%.

Q: And the pest or weed control at 250 g/ha ([13]; 0.25 kg/ha)?
A: The pest or weed control at 250 g/ha was 100%.

Q: What about the plant injury at 250 g/ha ([14]; 0.25 kg/ha) of the same compound?
A: Its plant injury at 250 g/ha is 40%.

Q: What about the pest or weed control at 250 g/ha ([15]; 0.25 kg/ha) of the same compound?
A: Its pest or weed control at 250 g/ha is 100%.

Q: What about the plant injury at 250 g/ha ([16]; 0.25 kg/ha) of the same compound?
A: Its plant injury at 250 g/ha is 30%.

Q: And the pest or weed control at 250 g/ha ([17]; 0.25 kg/ha)?
A: The pest or weed control at 250 g/ha was 100%.

Q: What about the pest or weed control at 250 g/ha ([18]; 0.25 kg/ha) of the same compound?
A: Its pest or weed control at 250 g/ha is 60%.

Q: What about the pest or weed control at 250 g/ha ([19]; 0.25 kg/ha) of the same compound?
A: The pest or weed control at 250 g/ha was 50%.

Q: What about the pest or weed control at 250 g/ha ([20]; 0.25 kg/ha) of the same compound?
A: The pest or weed control at 250 g/ha was 100%.

Q: What about the plant injury at 250 g/ha ([21]; 0.25 kg/ha) of the same compound?
A: Its plant injury at 250 g/ha is 80%.

Q: What about the pest or weed control at 250 g/ha ([22]; 0.25 kg/ha) of the same compound?
A: Its pest or weed control at 250 g/ha is 70%.
